For eight compounds, TGI results are on record in PubChem BioAssay (NCI).

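Briefly, cells in 96-well plates were exposed to five compound concentrations for 48 h, and endpoints were estimated by linear interpolation. TGI denotes the concentration required for complete inhibition of growth.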

Test systems include ACHN renal; DLD-1 colon; EKVX NSCLC; HCC-2998 colon; HOP-92 NSCLC; M14 melanoma; M19-MEL melanoma; SF-295 CNS; UACC-62 melanoma; NCI-H226 lung; NCI-H460 lung; U251 CNS.
Assay in all cases: DTP human tumour cell line panel, 48 h

A word on the TGI: it is the concentration at which net growth stops. Lower therefore signals more potent growth arrest. For `O=C(O)c1c[nH]c2c(=O)[nH]cnc12`, the TGI with ACHN renal, with DLD-1 colon, in the experiment on EKVX NSCLC, in the experiment with HCC-2998 colon, in the experiment with HOP-92 NSCLC and with M14 melanoma was > 100 µM throughout. The concentration for total growth inhibition (TGI) in the experiment on M19-MEL melanoma, with SF-295 CNS and with UACC-62 melanoma was > 100 µM each time.

Regarding `CC12CCC([C@H](N3CCOCC3)/C1=N\OCCN1CCCC1)C2(C)C` (stereo partly specified), the TGI in the experiment with ACHN renal, in the experiment with DLD-1 colon, in the experiment on EKVX NSCLC, in the experiment with HCC-2998 colon, with HOP-92 NSCLC and in the experiment with M14 melanoma was > 100 µM throughout. Also, the concentration for total growth inhibition (TGI) in the experiment with M19-MEL melanoma, with NCI-H226 lung, in the experiment on NCI-H460 lung, in the experiment with SF-295 CNS, in the experiment with U251 CNS and with UACC-62 melanoma was > 100 µM each time.

For the compound `O=C(C/C(=N\NC(=O)C[n+]1ccccc1)C(=O)Nc1nc2ccc([N+](=O)[O-])cc2s1)CC(c1ccccc1)c1c(O)c2ccccc2oc1=O` (stereo unspecified), the TGI in the experiment on ACHN renal, in the experiment with DLD-1 colon, in the experiment on EKVX NSCLC, in the experiment with HCC-2998 colon, in the experiment with HOP-92 NSCLC and in the experiment on M14 melanoma was > 100 µM throughout. Besides, the TGI in the experiment on M19-MEL melanoma, in the experiment with NCI-H460 lung, in the experiment with SF-295 CNS and with UACC-62 melanoma was > 100 µM each time.

In the case of `O=C(CC(=O)C(=O)Nc1ccccc1)CC(c1ccccc1)c1c(O)c2ccccc2oc1=O` (stereo unspecified), the TGI in the experiment with ACHN renal, in the experiment on DLD-1 colon, in the experiment with EKVX NSCLC, with HCC-2998 colon, in the experiment on HOP-92 NSCLC and in the experiment with M14 melanoma was > 100 µM in each case. Besides, the total growth inhibition concentration (TGI) in the experiment on M19-MEL melanoma, with NCI-H226 lung, with NCI-H460 lung, in the experiment with SF-295 CNS and with UACC-62 melanoma was > 100 µM in each case.

Turning to `C=CCC1C(=O)C(C(=O)OC)N2CCc3c([nH]c4ccccc34)C12` (stereo unspecified), the TGI with DLD-1 colon, with EKVX NSCLC, in the experiment with HCC-2998 colon, in the experiment with HOP-92 NSCLC, in the experiment with M14 melanoma and with M19-MEL melanoma was > 100 µM throughout. In addition, the TGI in the experiment on SF-295 CNS, in the experiment with U251 CNS and in the experiment with UACC-62 melanoma was > 100 µM in each case.

Take `CCCCCCCC(=O)OC[C@@H](C[As](=O)(O)O)OC(=O)CCCCCCC`: the TGI in the experiment with ACHN renal amounted to 25.6 µM; with DLD-1 colon it was 27.5 µM; in the experiment on EKVX NSCLC it was 84.4 µM; with HCC-2998 colon it was 29.2 µM; with HOP-92 NSCLC, 37.6 µM; with M14 melanoma it was 29.6 µM. Further, the TGI in the experiment on M19-MEL melanoma was 31 µM; in the experiment on NCI-H226 lung it was 18.6 µM; with SF-295 CNS, 28.9 µM; in the experiment on U251 CNS, 19.9 µM; with UACC-62 melanoma, 23.4 µM.

In the case of `COC(=O)C1CC(=O)CCC1c1ccccc1` (stereo unspecified), the TGI in the experiment on ACHN renal, in the experiment with DLD-1 colon, in the experiment with EKVX NSCLC, with HCC-2998 colon, in the experiment on HOP-92 NSCLC and in the experiment on M14 melanoma was > 100 µM in each case. The TGI in the experiment on M19-MEL melanoma, in the experiment on NCI-H226 lung, in the experiment with NCI-H460 lung, in the experiment on SF-295 CNS, in the experiment with U251 CNS and in the experiment on UACC-62 melanoma was > 100 µM in each case.

With `O=C1CSC(/C(=C/c2ccccc2)c2nc3ccccc3[nH]2)=N1`, the concentration for total growth inhibition (TGI) in the experiment on ACHN renal, with DLD-1 colon, with EKVX NSCLC, in the experiment on HCC-2998 colon, in the experiment with HOP-92 NSCLC and in the experiment with M14 melanoma was > 100 µM throughout. The TGI is > 100 µM in the experiment on M19-MEL melanoma; 38.4 µM in the experiment with NCI-H226 lung; > 100 µM with NCI-H460 lung; > 100 µM with SF-295 CNS; 74.4 µM in the experiment on U251 CNS; > 100 µM with UACC-62 melanoma.
